We go through 23 compounds from patent publication US20260226068A1, “IMIDAZOTRIAZINE IL-17A MODULATORS AND USES THEREOF” (DICE ALPHA, INC., priority 2023, published 2026).

Each structure is given as a SMILES string.

The target of one assay is T1, IL-17A/A (Homo sapiens, UniProt Q16552).
T1 construct: purchased Genscript Z03228
T1 sequence (Q16552 24-155): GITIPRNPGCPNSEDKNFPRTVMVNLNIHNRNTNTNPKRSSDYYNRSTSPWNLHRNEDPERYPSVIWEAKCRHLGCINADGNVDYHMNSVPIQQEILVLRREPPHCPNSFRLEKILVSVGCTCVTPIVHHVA
Description: IL-17A/A HEK-Blue cell assay (SEAP reporter). The conditions noted are these: HEK-Blue IL-17A reporter cells, IL17A/A 5 ng/mL, 20 hours, SEAP read at A630; read-out: HEK-Blue IL17AA (IC50 for IL-17A/A inhibition). It counts as cell-based.

Another assay concerns the target T2, IL-17A/F (Homo sapiens, UniProt Q16552+Q96PD4).
T2 construct: purchased R&D Systems
T2 sequence (Q16552 24-155): T1 sequence (Q16552 24-155)
T2 sequence (Q96PD4 31-163): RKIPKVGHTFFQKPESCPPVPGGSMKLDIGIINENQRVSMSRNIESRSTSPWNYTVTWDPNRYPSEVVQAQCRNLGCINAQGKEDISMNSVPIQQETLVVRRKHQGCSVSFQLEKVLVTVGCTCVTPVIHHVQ
Briefly: IL-17A/F HEK-Blue cell assay (SEAP reporter). It counts as cell-based. The conditions noted are these: HEK-Blue IL-17A reporter cells, IL17A/F 5 ng/mL, 20 hours, SEAP read at A630; read-out: HEK-Blue IL17AF (IC50 for IL-17A/F inhibition).

As for `CCn1nccc1C(=O)N[C@H](c1cn2nc(C[C@H]3C[C@@H](C(F)(F)F)CNC3=O)c(CN3CCC(F)(F)CC3)nc2n1)C1CCC(F)(F)CC1` [Compound 345, N—((S)-(4,4-difluorocyclohexyl)(3-((4,4-difluoropiperidin-1-yl)methyl)-2-(((3R,5R)-2-oxo-5-(trifluoromethyl)piperidin-3-yl)methyl)imidazo[1,2-b][1,2,4]triazin-6-yl)methyl)-1-ethyl-1H-pyrazole-5-carboxamide], the figures for the IC50 on IL-17A/A and on IL-17A/F were less than 100 nM and greater than 1000 nM, respectively.

As to `CCn1nccc1C(=O)N[C@H](c1cn2nc(C[C@H]3C[C@@H](C(F)(F)F)CNC3=O)c([C@@H]3CCC(C)(C)OC3)nc2n1)C1CCC(F)(F)CC1` (single isomer, unassigned) [Compound 256], the IC50 at IL-17A/A is less than 100 nM; at IL-17A/F it was 100 to 1000 nM.

For the compound `CC(C)n1nccc1C(=O)N[C@H](c1cn2nc(CC3C[C@@H](C(F)(F)F)CNC3=O)c(N3CC4CC(C3)O4)nc2n1)[C@H]1CCCC(F)(F)C1` (single isomer, unassigned) [Compound 128], the IC50 at IL-17A/A was less than 100 nM; on IL-17A/F, 100 to 1000 nM.

Regarding `CCn1nccc1C(=O)N[C@H](c1cn2nc(C[C@H]3C[C@@H](C(F)(F)F)CNC3=O)c([C@@H]3CCNC3)nc2n1)C1CCC(F)(F)CC1` [Compound 284, N-((1S)-(4,4-difluorocyclohexyl)(2-(((3R,5R)-2-oxo-5-(trifluoromethyl)piperidin-3-yl)methyl)-3-(pyrrolidin-3-yl)imidazo[1,2-b][1,2,4]triazin-6-yl)methyl)-1-ethyl-1H-pyrazole-5-carboxamide], the IC50 is 100 to 1000 nM at IL-17A/A and greater than 1000 nM at IL-17A/F.

For the compound `CCn1nccc1C(=O)N[C@H](c1cn2nc(C[C@H]3C[C@@H](C(F)(F)F)CNC3=O)c(CCN3CCOCC3)nc2n1)C1CCC(F)(F)CC1` [Compound 359], the IC50 on IL-17A/A was less than 100 nM; on IL-17A/F, 100 to 1000 nM.

Take `CCn1nccc1C(=O)N[C@H](c1cn2nc(C[C@H]3C[C@@H](C(F)(F)F)CNC3=O)c(N(C)C)nc2n1)[C@@H]1CCCC(F)(F)C1` [Compound 119, N—((S)—((R)-3,3-difluorocyclohexyl)(3-(dimethylamino)-2-(((3R,5R)-2-oxo-5-(trifluoromethyl)piperidin-3-yl)methyl)imidazo[1,2-b][1,2,4]triazin-6-yl)methyl)-1-ethyl-1H-pyrazole-5-carboxamide]: the IC50 was less than 100 nM on IL-17A/A and 100 to 1000 nM at IL-17A/F.

`CCn1nccc1C(=O)N[C@H](c1cn2nc(C[C@H]3C[C@@H](C(F)(F)F)CNC3=O)c(C3CCOC(C)(C)C3)nc2n1)C1CCC(F)(F)CC1` (single isomer, unassigned) [Compound 176]: the IC50 at IL-17A/A and on IL-17A/F was less than 100 nM in each case.

For `CCn1nccc1C(=O)N[C@H](c1cn2nc(C[C@H]3C[C@@H](C(F)(F)F)CNC3=O)c(CN3CCCC4(CC4)C3)nc2n1)C1CCC(F)(F)CC1` [Compound 347, N—((S)-(3-((5-azaspiro[2.5]octan-5-yl)methyl)-2-(((3R,5R)-2-oxo-5-(trifluoromethyl)piperidin-3-yl)methyl)imidazo[1,2-b][1,2,4]triazin-6-yl)(4,4-difluorocyclohexyl)methyl)-1-ethyl-1H-pyrazole-5-carboxamide], the results for the IC50 at IL-17A/A and on IL-17A/F were less than 100 nM and greater than 1000 nM, respectively.

Consider `CCn1nccc1C(=O)N[C@H](c1cn2nc(C[C@H]3C[C@@H](C(F)(F)F)CNC3=O)c(C3CCCCN3CCOC)nc2n1)C1CCC(F)(F)CC1` (stereo partly drawn) [Compound 369, N-((1S)-(4,4-difluorocyclohexyl)(3-(1-(2-methoxyethyl)piperidin-2-yl)-2-(((3R,5R)-2-oxo-5-(trifluoromethyl)piperidin-3-yl)methyl)imidazo[1,2-b][1,2,4]triazin-6-yl)methyl)-1-ethyl-1H-pyrazole-5-carboxamide], for which the results for the IC50 at IL-17A/A and on IL-17A/F were 100 to 1000 nM and greater than 1000 nM, respectively.

As to `CCn1nccc1C(=O)N[C@H](c1cn2nc(CC3C[C@H](C(F)(F)F)CNC3=O)c(N3CCOCC3)nc2n1)C1CCC(F)(F)CC1` (single isomer, unassigned) [Compound 54], the figures for the IC50 on IL-17A/A and at IL-17A/F were less than 100 nM and 100 to 1000 nM, respectively.

As to `CCn1nccc1C(=O)N[C@H](c1cn2nc(C[C@H]3C[C@@H](C(F)(F)F)CNC3=O)c([C@H]3CCCCN3)nc2n1)C1CCC(F)(F)CC1` (single isomer, unassigned) [Compound 325], the IC50 on IL-17A/A was 100 to 1000 nM; at IL-17A/F, greater than 1000 nM.

In the case of `CCn1nccc1C(=O)N[C@H](c1cn2nc(C[C@H]3C[C@@H](C(F)(F)F)CNC3=O)c(C3CCOC3)nc2n1)[C@H]1CC[C@H](C)CC1` (single isomer, unassigned) [Compound 139], the IC50 on IL-17A/A and at IL-17A/F was less than 100 nM each time.

Turning to `CC[C@@H](c1ccc(F)cc1)[C@H](NC(=O)c1ccnn1CC)c1cn2nc(C[C@H]3C[C@@H](C(F)(F)F)CNC3=O)cnc2n1` [Compound 60, 1-ethyl-N-((1S,2S)-2-(4-fluorophenyl)-1-(2-(((3R,5R)-2-oxo-5-(trifluoromethyl)piperidin-3-yl)methyl)imidazo[1,2-b][1,2,4]triazin-6-yl)butyl)-1H-pyrazole-5-carboxamide], the IC50 on IL-17A/A was less than 100 nM; on IL-17A/F it was greater than 1000 nM.

In the case of `CCn1nccc1C(=O)N[C@H](c1cn2nc(CC3C[C@H](C(F)(F)F)CNC3=O)c(N(C)C)nc2n1)C1CCC(F)(F)CC1` (single isomer, unassigned) [Compound 51], the IC50 on IL-17A/A is 100 to 1000 nM; on IL-17A/F it was greater than 1000 nM.

On to `CCn1nccc1C(=O)N[C@H](c1cn2nc(CC3C[C@@H](C(F)(F)F)CNC3=O)c(N3CC4CCC(C3)O4)nc2n1)[C@H]1CC[C@H](C)CC1` (single isomer, unassigned) [Compound 105], for which the IC50 was less than 100 nM on IL-17A/A and 100 to 1000 nM at IL-17A/F.

Regarding `O=C(N[C@H](c1cn2nc(C[C@H]3C[C@@H](C(F)(F)F)CNC3=O)c(C3CCOCC3)nc2n1)C1CCC(F)(F)CC1)c1ccnn1CCN1CCCC1C(F)(F)F` (stereo partly drawn) [Compound 430, N—((S)-(4,4-difluorocyclohexyl)(2-(((3R,5R)-2-oxo-5-(trifluoromethyl)piperidin-3-yl)methyl)-3-(tetrahydro-2H-pyran-4-yl)imidazo[1,2-b][1,2,4]triazin-6-yl)methyl)-1-(2-(2-(trifluoromethyl)pyrrolidin-1-yl)ethyl)-1H-pyrazole-5-carboxamide], the results for the IC50 on IL-17A/A and at IL-17A/F were less than 100 nM and 100 to 1000 nM, respectively.

For the compound `CCn1nccc1C(=O)N[C@H](c1cn2nc(C[C@@H]3CC(F)(F)CNC3=O)c(C3CCOCC3)nc2n1)[C@H]1CC[C@H](C)CC1` [Compound 223], the IC50 at IL-17A/A is less than 100 nM; on IL-17A/F it was 100 to 1000 nM.

In the case of `CCn1nccc1C(=O)N[C@H](c1cn2nc(C[C@H]3C[C@@H](C(F)(F)F)CNC3=O)c(C3(F)CCOCC3)nc2n1)C1CCC(F)(F)CC1` [Compound 212, N-((1S)-(4,4-difluorocyclohexyl)(3-(4-fluorotetrahydro-2H-pyran-4-yl)-2-(((3R,5R)-2-oxo-5-(trifluoromethyl)piperidin-3-yl)methyl)imidazo[1,2-b][1,2,4]triazin-6-yl)methyl)-1-ethyl-1H-pyrazole-5-carboxamide], the IC50 at IL-17A/A is less than 100 nM; on IL-17A/F, 100 to 1000 nM.

In the case of `CCn1nccc1C(=O)N[C@H](c1cn2nc(C[C@H]3C[C@@H](C(F)(F)F)CNC3=O)c([C@@H](C)C3CCOCC3)nc2n1)C1CCC(F)(F)CC1` (single isomer, unassigned) [Compound 252], the IC50 on IL-17A/A is less than 100 nM; at IL-17A/F, 100 to 1000 nM.

For `CCn1nccc1C(=O)N[C@H](c1cn2nc(C[C@H]3C[C@@H](C(F)(F)F)CNC3=O)c(CN(C)CC(F)(F)F)nc2n1)C1CCC(F)(F)CC1` [Compound 335, N—((S)-(4,4-difluorocyclohexyl)(3-((methyl(2,2,2-trifluoroethyl)amino)methyl)-2-(((3R,5R)-2-oxo-5-(trifluoromethyl)piperidin-3-yl)methyl)imidazo[1,2-b][1,2,4]triazin-6-yl)methyl)-1-ethyl-1H-pyrazole-5-carboxamide], the figures for the IC50 on IL-17A/A and at IL-17A/F were less than 100 nM and 100 to 1000 nM, respectively.

As for `Cn1nccc1C(=O)N[C@H](c1cn2nc(C[C@H]3C[C@@H](C(F)(F)F)CNC3=O)c(CC3COC3)nc2n1)C1CCCCCC1` [Compound 377, N—((S)-cycloheptyl(3-(oxetan-3-ylmethyl)-2-(((3R,5R)-2-oxo-5-(trifluoromethyl)piperidin-3-yl)methyl)imidazo[1,2-b][1,2,4]triazin-6-yl)methyl)-1-methyl-1H-pyrazole-5-carboxamide], the IC50 at IL-17A/A was less than 100 nM; at IL-17A/F, 100 to 1000 nM.

With `CCn1nccc1C(=O)N[C@H](c1cn2nc(CC3C[C@@H](C(F)(F)F)CNC3=O)cnc2n1)[C@H]1CC[C@H](C)CC1` (single isomer, unassigned) [Compound 2], the IC50 on IL-17A/A was 100 to 1000 nM; at IL-17A/F, greater than 1000 nM.

On to `CCn1nccc1C(=O)N[C@H](c1cn2nc(C[C@H]3C[C@@H](C(F)(F)F)CNC3=O)c(CC3CCCO3)nc2n1)C1CCC(F)(F)CC1` (stereo partly drawn) [Compound 171, N-((1S)-(4,4-difluorocyclohexyl)(2-(((3R,5R)-2-oxo-5-(trifluoromethyl)piperidin-3-yl)methyl)-3-((tetrahydrofuran-2-yl)methyl)imidazo[1,2-b][1,2,4]triazin-6-yl)methyl)-1-ethyl-1H-pyrazole-5-carboxamide], for which the values for the IC50 at IL-17A/A and on IL-17A/F were less than 100 nM and 100 to 1000 nM, respectively.
